{"source": "patent US20240408082A1", "about": "“METHODS FOR TREATING CANCERS AND TUMORS” (BEYONDSPRING PHARMACEUTICALS, INC., priority 2021, published 2024)", "test_system": "SXFS 627", "assay": "3D clonogenic assay, Example 1, SXFS 627", "format": "cell-based", "conditions": "model SXFS 627", "description": "In the present study, plinabulin was characterized for its ability to inhibit anchorage independent growth and ex vivo colony formation of tumor cells in semi-solid medium. The compound was investigated in 87 out of 93 originally planned tumor xenografts representing all major cancer types using a 3D clonogenic assay in a 96-well format with colony count based on image analysis as read-out. By using this assay, the investigational compound was assessed for the ability to inhibit anchorage independent growth and ex vivo colony formation of tumor cells in semi-solid medium.\nA master stock solution of plinabulin was prepared by dissolving the compound in DMSO at a concentration of 9.9 mM. Working stock solutions were prepared by diluting the master stock solution with DMSO to a concentration of 0.99 mM (330-fold the highest test concentration). Small aliquots of the master and working stock were stored at −20° C. […]\nPlinabulin was investigated in 87 PDX models representing a number of cancer types. […] The percentage of viable cells was determined in a Neubauer-hemocytometer using trypan blue exclusion. […]\nThe clonogenic assay was carried out in a 96 well plate format using ultra low attachment plates. […] Cultures were incubated at 37° C. and 7.5% CO2 in a humidified atmosphere 13 days in total and monitored closely for colony growth using an inverted microscope. […]"}
{"smiles": "CC(C)(C)c1[nH]cnc1/C=c1\\[nH]c(=O)/c(=C/c2ccccc2)[nH]c1=O", "note": "[plinabulin, (3Z,6Z)-3-Benzylidene-6-{[5-(2-methyl-2-propanyl)-1H-imidazol-4-yl]methylene}-2,5-piperazinedione]", "values": [{"measurement": "absolute IC70", "result": 3, "unit": "nM"}]}
